Series [1] has as its system Sprague-Dawley rats. As to the kind of experiment: animal or person. Conditions: for ED50: Rattus norvegicus; for Approximate therapeutic index / Minimal lethal dose: rats. The method, then:
Adult male Sprague-Dawley rats (250-300 g) were selected for the experiment. […] The anesthesia effects of the compounds were assessed in rats using a LORR assay and a period >30 s was considered as an indicator of general anesthesia.

The test system of series [2] is Sprague-Dawley rats. As to the kind of experiment: Pharmacological characteristics at equivalent doses (2ED50), Group A compounds. In kind it is in vivo. Conditions: 2ED50, tail vein; for Types and incidence of adverse reactions: (animals affected/animals).
For series [3], the system named is H295R cell line. As to the kind of experiment: Adrenocortical function in vitro test: secretion of cortisol and corticosterone, Group A compounds. The conditions noted are these: H295 cells; for EC50: Homo sapiens, 0.1-10000 nM, HPLC-MS/MS. Format: cell-based.
The mark [4] stands for this setting: read-out: EC50 (Corticosterone).

The structures appear in SMILES notation. Entries after “also recorded” stand apart in the source; their conditions may differ. Where two headings read alike, the source gives them in different places.

Broadly, the ED50 is the dose at which the effect has come halfway, by size or by number of responders. The low end stands for greater potency, the high end for weaker potency. For orientation: EC50 means the midpoint of the concentration-response curve. In series [1], `CCOC(=O)c1cc(F)nn1[C@H](C)c1ccccc1` [Compound A49] displayed an ED50 of 2 to 6 mg/kg, an Approximate therapeutic index greater than 2 and a Minimal lethal dose greater than 9 mg/kg. In series [2], the Onset time turned out to be 0.28 ± 0.04 min; the Righting reflex duration is recorded as 2.69 ± 1.18 min; the “Types and incidence of adverse reactions” value was “Red urine(8/8), Hindlimb; also recorded: rigidity (2/8), broken-; also recorded: winded(1/8), Tremor(3/8)”. In series [3], the “Corticosterone as an indicator to determine the presence of inhibition” value (from here on “Corticosterone as an indicator … of inhibition”) was determined as 0 and the “Cortisol as an indicator to determine the presence of inhibition” value (shortened to “Cortisol as an indicator … of inhibition”) turned out to be 0. For the same compound, in series [3] (setting [4]), the EC50 is greater than 100 nM. Further, in series [3] (read-out: EC50 (Cortisol)), the EC50 is greater than 100 nM.

In series [1], `C#CC1(OC(=O)c2cc(F)nn2[C@H](C)c2ccccc2)COC1` [Compound A53] yielded an ED50 of 2 to 6 mg/kg, an Approximate therapeutic index greater than 6 and a Minimal lethal dose greater than 14 mg/kg. In series [2], the Onset time stood at 0.53 ± 0.28 min; the Righting reflex duration was found to be 3.01 ± 1.22 min; the “Types and incidence of adverse reactions” value was “Red and urine(8/8), Tremor(2/8)”. For the same compound, in series [3], the “Corticosterone as an indicator … of inhibition” value stood at 0 and the “Cortisol as an indicator … of inhibition” value is on record as 0. Further, the EC50 in series [3] (setting [4]) was greater than 100 nM. Further, the EC50 in series [3] (read-out: EC50 (Cortisol)) is greater than 100 nM.

Take `COC(=O)C1=C(OC(=O)c2cc(F)nn2[C@H](C)c2ccccc2)CCCC1` [Compound A54]: in series [1], the ED50 lay in the range of 1 to 2 mg/kg, the Approximate therapeutic index is listed as greater than 9 and the Minimal lethal dose is recorded as greater than 12 mg/kg. In addition, in series [2], the Onset time amounted to 0.69 ± 0.11 min; the Righting reflex duration turned out to be 2.13 ± 1.80 min; the “Types and incidence of adverse reactions” value was “rigidity; also recorded: (3/8), GeneralTremor(1/8); also recorded: Red urine(8/8), Hindlimb”. In series [3], the “Corticosterone as an indicator … of inhibition” value is on record as 0 and the “Cortisol as an indicator … of inhibition” value worked out at 0. Moreover, the EC50 in series [3] (setting [4]) was greater than 100 nM. Moreover, the EC50 in series [3] (read-out: EC50 (Cortisol)) is greater than 100 nM.

In the case of `C[C@H](c1ccccc1)n1nc(F)cc1C(=O)OC(C)(C)C` [Compound A57], in series [1], the ED50 fell in the range of 2 to 6 mg/kg, the Approximate therapeutic index is given as greater than 7 and the Minimal lethal dose was greater than 15 mg/kg. In addition, in series [2], the Onset time turned out to be 0.42 ± 0.16 min; the Righting reflex duration is 1.48 ± 0.51 min; the “Types and incidence of adverse reactions” value was “Red and urine(7/7), GeneralTremor and (2/7), Tetany and convulsion(2/7)”. In addition, in series [3], the “Corticosterone as an indicator … of inhibition” value is recorded as 0 and the “Cortisol as an indicator … of inhibition” value is reported as 0. For the same compound, the EC50 in series [3] (setting [4]) is greater than 100 nM. Also, the EC50 in series [3] (read-out: EC50 (Cortisol)) is greater than 100 nM.

Regarding `C=CC1(OC(=O)c2cc(F)nn2[C@H](C)c2ccccc2)COC1` [Compound A65], in series [1], the ED50 was 2 to 6 mg/kg, the Approximate therapeutic index is listed as greater than 7 and the Minimal lethal dose is given as greater than 16 mg/kg. Further, in series [2], the Onset time was 0.36 ± 0.15 min; the Righting reflex duration was found to be 2.48 ± 0.67 min; the “Types and incidence of adverse reactions” value was “Red and urine(8/8), Tremor(2/8)”. Besides, in series [3], the “Corticosterone as an indicator … of inhibition” value is reported as 0 and the “Cortisol as an indicator … of inhibition” value stood at 0. For the same compound, the EC50 in series [3] (setting [4]) was greater than 100 nM. The EC50 in series [3] (read-out: EC50 (Cortisol)) is greater than 100 nM.

Turning to `CCOC(=O)c1c(F)cnn1[C@H](C)c1ccccc1` [Compound A70], in series [1], the ED50 lay within 1 to 2 mg/kg, the Approximate therapeutic index was greater than 6 and the Minimal lethal dose is greater than 12 mg/kg. Moreover, in series [2], the Onset time was determined as 0.31 ± 0.08 min and the Righting reflex duration was found to be 2.51 ± 1.03 min. In series [3], the “Corticosterone as an indicator … of inhibition” value is recorded as 0 and the “Cortisol as an indicator … of inhibition” value was 0. The EC50 in series [3] (setting [4]) is greater than 100 nM. Besides, in series [3] (read-out: EC50 (Cortisol)), the EC50 was greater than 100 nM.

On to `CC#CCOC(=O)c1c(F)cnn1[C@H](C)c1ccccc1` [Compound A72], for which, in series [1], the ED50 lay within 0.04 to 0.5 mg/kg, the Approximate therapeutic index was greater than 100 and the Minimal lethal dose is given as greater than 11 mg/kg. In series [2], the Onset time is 0.41 ± 0.17 min; the Righting reflex duration came out at 0.71 ± 0.20 min; the “Types and incidence of adverse reactions” value is “Red and urine(8/8), Tremor(1/8), and Hindlimb rigidity (1/8)”. For the same compound, in series [3], the “Corticosterone as an indicator … of inhibition” value came to 0 and the “Cortisol as an indicator … of inhibition” value is 0. For the same compound, the EC50 in series [3] (setting [4]) is greater than 1000 nM. Moreover, the EC50 in series [3] (read-out: EC50 (Cortisol)) is greater than 1000 nM.

On to `C=C=CC1(OC(=O)c2c(F)cnn2[C@H](C)c2ccccc2)COC1` [Compound A73], for which, in series [1], the ED50 was in the range of 0.04 to 0.5 mg/kg, the Approximate therapeutic index is given as greater than 25 and the Minimal lethal dose is greater than 2 mg/kg. For the same compound, in series [2], the Onset time stood at 0.42 ± 0.07 min; the Righting reflex duration is reported as 1.21 ± 0.45 min; the “Types and incidence of adverse reactions” value was “Red and urine(8/8), Tremor(3/8), and Facial muscle and twitching(2/8), Euphoria and (1/8), Nod(1/8)”. In addition, in series [3], the “Corticosterone as an indicator … of inhibition” value is 0 and the “Cortisol as an indicator … of inhibition” value was 0. Also, in series [3] (setting [4]), the EC50 was greater than 1000 nM. Moreover, the EC50 in series [3] (read-out: EC50 (Cortisol)) was greater than 1000 nM.

Regarding `CC#CC(C)(C)OC(=O)c1c(F)cnn1[C@H](C)c1ccccc1` [Compound A83], in series [1], the ED50 was 1 to 2 mg/kg, the Approximate therapeutic index is greater than 10 and the Minimal lethal dose was greater than 12 mg/kg. In series [2], the Onset time stood at 0.43 ± 0.32 min and the Righting reflex duration is on record as 3.21 ± 0.41 min. Also, in series [3], the “Corticosterone as an indicator … of inhibition” value turned out to be 0 and the “Cortisol as an indicator … of inhibition” value is 0. The EC50 in series [3] (setting [4]) was greater than 1000 nM. In addition, the EC50 in series [3] (read-out: EC50 (Cortisol)) was greater than 1000 nM.

In series [1], `C=CC1(OC(=O)c2c(F)cnn2[C@H](C)c2ccccc2)COC1` [Compound A87] registered an ED50 of 0.5 to 1 mg/kg, an Approximate therapeutic index greater than 18 and a Minimal lethal dose greater than 13 mg/kg. In addition, in series [2], the Onset time is 0.30 ± 0.12 min and the Righting reflex duration is given as 2.21 ± 0.24 min. In series [3], the “Corticosterone as an indicator … of inhibition” value worked out at 0 and the “Cortisol as an indicator … of inhibition” value came to 0. Further, the EC50 in series [3] (setting [4]) was greater than 1000 nM. In series [3] (read-out: EC50 (Cortisol)), the EC50 was greater than 1000 nM.

Take `C=C=CC1(OC(=O)c2c(F)c(F)nn2[C@H](C)c2ccccc2)COC1` [Compound A92]: in series [1], the 50% effective dose (ED50) is 0.04 to 0.5 mg/kg, the Approximate therapeutic index is reported as greater than 14 and the Minimal lethal dose is greater than 1 mg/kg. For the same compound, in series [2], the Onset time amounted to 0.43 ± 0.22 min; the Righting reflex duration amounted to 2.03 ± 0.33 min; the “Types and incidence of adverse reactions” value was “Red and urine(8/8), Tremor(2/8), and Euphoria(1/8)”. In series [3], the “Corticosterone as an indicator … of inhibition” value is on record as 0 and the “Cortisol as an indicator … of inhibition” value stood at 0. Also, in series [3] (setting [4]), the EC50 was greater than 1000 nM. The EC50 in series [3] (read-out: EC50 (Cortisol)) was greater than 1000 nM.

Turning to `CO[C@H]1C[C@@H](OC(=O)c2c(F)c(F)nn2[C@H](C)c2ccccc2)C1` [Compound A94], in series [1], the ED50 lay within 0.5 to 1 mg/kg, the Approximate therapeutic index was greater than 12 and the Minimal lethal dose was greater than 12 mg/kg. Moreover, in series [2], the Onset time is 0.33 ± 0.12 min; the Righting reflex duration worked out at 1.26 ± 0.40 min; the “Types and incidence of adverse reactions” value was “Red and urine(8/8), Tremor(3/8), and Four limbs and rigidity(2/8), Euphoria(1/8)”. In addition, in series [3], the “Corticosterone as an indicator … of inhibition” value is 0 and the “Cortisol as an indicator … of inhibition” value came to 0. In series [3] (setting [4]), the EC50 is greater than 1000 nM. The EC50 in series [3] (read-out: EC50 (Cortisol)) is greater than 1000 nM.

As for `CC(=O)C1=C(OC(=O)c2c(F)c(F)nn2[C@H](C)c2ccccc2)CCC1` [Compound A98], in series [1], the ED50 is 1 to 2 mg/kg, the Approximate therapeutic index is on record as greater than 7 and the Minimal lethal dose was greater than 10 mg/kg. In series [2], the Onset time worked out at 0.30 ± 0.06 min; the Righting reflex duration is on record as 1.89 ± 0.23 min; the “Types and incidence of adverse reactions” value was “Red urine(8/8), Facial; also recorded: muscle; also recorded: twitching(2/8), Hindlimb; also recorded: rigidity (1/8)”. In series [3], the “Corticosterone as an indicator … of inhibition” value is reported as 0 and the “Cortisol as an indicator … of inhibition” value is recorded as 0. The concentration giving a half-maximal response (EC50) in series [3] (setting [4]) was greater than 1000 nM. The EC50 in series [3] (read-out: EC50 (Cortisol)) is greater than 1000 nM.

In series [1], `C=C=CC1(OC(=O)c2c(C(F)(F)F)cnn2[C@H](C)c2ccccc2)COC1` [Compound A100] showed an ED50 of 2 to 6 mg/kg, an Approximate therapeutic index greater than 6 and a Minimal lethal dose greater than 14 mg/kg. In addition, in series [2], the Onset time is reported as 0.49 ± 0.17 min; the Righting reflex duration came out at 3.21 ± 0.89 min; the “Types and incidence of adverse reactions” value was “Red urine(8/8), Indirect; also recorded: tremor Tremor(4/8), Four; also recorded: limbs; also recorded: rigidity(2/8), Euphoria(2/8)”. Moreover, in series [3], the “Corticosterone as an indicator … of inhibition” value was 0 and the “Cortisol as an indicator … of inhibition” value was 0. Besides, in series [3] (setting [4]), the EC50 was greater than 100 nM. Also, in series [3] (read-out: EC50 (Cortisol)), the EC50 was greater than 100 nM.

As to `COC(=O)C1=C(OC(=O)c2c(C(F)(F)F)cnn2[C@H](C)c2ccccc2)CCCC1` [Compound A101], in series [1], the ED50 is 1 to 2 mg/kg, the Approximate therapeutic index was greater than 8 and the Minimal lethal dose is on record as greater than 13 mg/kg. In series [2], the Onset time is 0.39 ± 0.21 min; the Righting reflex duration stood at 2.29 ± 0.65 min; the “Types and incidence of adverse reactions” value is “Red and urine(8/8), Euphoria(3/8), and Nod(2/8)”. Moreover, in series [3], the “Corticosterone as an indicator … of inhibition” value is listed as 0 and the “Cortisol as an indicator … of inhibition” value is listed as 0. Further, the EC50 in series [3] (setting [4]) is greater than 100 nM. In series [3] (read-out: EC50 (Cortisol)), the concentration giving a half-maximal response (EC50) was greater than 100 nM.
